Experiment [1] concerns the target human PDE4D isozyme (Homo sapiens, UniProt Q08499). Nature of the experiment: IC50 for human PDE4D isozyme (Table 4). It is filed as biochemical. The following applies: read-out: IC50 for human PDE4D isozyme, hPDE4D. The method, then: (§1) In-vitro assay for PDE4 enzymes. The in-vitro activity of PDE4 enzymes and the in-vitro potency of therapeutic agents described in the present invention was measured using a real-time, enzyme-coupled spectrophotometric assay. By using three different coupling enzymes, the product of the PDE4 reaction is coupled to the oxidation of the reduced form β-nicotinamide adenine dinucleotide (NADH), which dissipation can be monitored spectrophotmetrically at […]. Assay description. Buffer A containing 50 mM Tris, pH 8.0, 16 mM MgCl2 and 80 mM KCl is prepared and stored at room temperature. Buffer B containing 50 mM Tris, pH 8.0 is prepared and stored at toom temperature. Stock solutions of the following reagents are prepared in Buffer B and stored at −20° C.: Adenosine-5′-triphosphate (ATP), cyclic adenosine-5′-monophosphate (cAMP), phosphoenolpyruvate (PEP) and NADH. An assay mix is prepared by mixing Buffer A, […] (TCEP), ATP, PEP, NADH, myokinase (MK), pyruvate kinase (PK), lactate dehydroganese (LDH) and PDE4 to a final volume of 20 mL, which is enough for a single 96-well assay plate. Assay mix (180 μL) and test article (10 μL) in 1:1 DMSO/H2O mixture is pre-incubated at room temperature for 10 min. The enzymatic reaction is initiated by addition of cAMP (10 μL). Final concentration of all components in the assay (200 μL/well) are as follows: 10 mM MgCl2, 50 mM KCl, 5 mM TCEP, 2.5% DMSO, 0.4 mM NADH, 1 mM PEP, 0.04 mM ATP, 5 units MK, 1 unit PK, 1 unit LDH and appropriate amount of PDE4. Reaction progress curves are monitored in a plate reader capable of measuring light absorbance at 340 nm. A decrease in light absorbance at 340 nm is due to oxidation of NADH. Positive controls containing no test article and negative controls containing no test article and no cAMP are included on every assay plate. Reaction rates are determined from the slopes of the linear portions of the progress curves. All data is percent normalized with respect to controls and presented as percent inhibition.

In experiment [2] the target is human PDE4B isozyme (Homo sapiens, UniProt Q07343). Nature of the experiment: IC50 for human PDE4B isozyme (Table 5). It is filed as biochemical. The following applies: read-out: IC50 for human PDE4B isozyme, hPDE4B. How it is done:
as §1

human PDE4B isozyme, sequence (Q07343 whole entry): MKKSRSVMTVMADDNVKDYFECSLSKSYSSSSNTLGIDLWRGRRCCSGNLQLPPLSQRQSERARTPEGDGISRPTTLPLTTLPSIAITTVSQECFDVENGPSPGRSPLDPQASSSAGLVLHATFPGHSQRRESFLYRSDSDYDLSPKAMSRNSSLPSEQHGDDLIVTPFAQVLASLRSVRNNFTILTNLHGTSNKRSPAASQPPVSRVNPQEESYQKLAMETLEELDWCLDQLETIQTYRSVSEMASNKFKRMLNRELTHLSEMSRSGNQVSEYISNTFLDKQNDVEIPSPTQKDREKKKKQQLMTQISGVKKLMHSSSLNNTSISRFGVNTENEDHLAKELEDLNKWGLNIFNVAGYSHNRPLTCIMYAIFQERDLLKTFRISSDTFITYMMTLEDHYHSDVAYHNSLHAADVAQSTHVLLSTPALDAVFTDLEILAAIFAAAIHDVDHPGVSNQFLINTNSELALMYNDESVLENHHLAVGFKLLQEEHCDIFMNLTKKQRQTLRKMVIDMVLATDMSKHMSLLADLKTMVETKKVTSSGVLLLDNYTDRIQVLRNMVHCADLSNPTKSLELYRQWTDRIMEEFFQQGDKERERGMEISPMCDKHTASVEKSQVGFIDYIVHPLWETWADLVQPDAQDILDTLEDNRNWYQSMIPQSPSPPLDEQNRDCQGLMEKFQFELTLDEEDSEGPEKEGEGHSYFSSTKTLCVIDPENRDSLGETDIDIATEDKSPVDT
human PDE4D isozyme, sequence (Q08499 whole entry): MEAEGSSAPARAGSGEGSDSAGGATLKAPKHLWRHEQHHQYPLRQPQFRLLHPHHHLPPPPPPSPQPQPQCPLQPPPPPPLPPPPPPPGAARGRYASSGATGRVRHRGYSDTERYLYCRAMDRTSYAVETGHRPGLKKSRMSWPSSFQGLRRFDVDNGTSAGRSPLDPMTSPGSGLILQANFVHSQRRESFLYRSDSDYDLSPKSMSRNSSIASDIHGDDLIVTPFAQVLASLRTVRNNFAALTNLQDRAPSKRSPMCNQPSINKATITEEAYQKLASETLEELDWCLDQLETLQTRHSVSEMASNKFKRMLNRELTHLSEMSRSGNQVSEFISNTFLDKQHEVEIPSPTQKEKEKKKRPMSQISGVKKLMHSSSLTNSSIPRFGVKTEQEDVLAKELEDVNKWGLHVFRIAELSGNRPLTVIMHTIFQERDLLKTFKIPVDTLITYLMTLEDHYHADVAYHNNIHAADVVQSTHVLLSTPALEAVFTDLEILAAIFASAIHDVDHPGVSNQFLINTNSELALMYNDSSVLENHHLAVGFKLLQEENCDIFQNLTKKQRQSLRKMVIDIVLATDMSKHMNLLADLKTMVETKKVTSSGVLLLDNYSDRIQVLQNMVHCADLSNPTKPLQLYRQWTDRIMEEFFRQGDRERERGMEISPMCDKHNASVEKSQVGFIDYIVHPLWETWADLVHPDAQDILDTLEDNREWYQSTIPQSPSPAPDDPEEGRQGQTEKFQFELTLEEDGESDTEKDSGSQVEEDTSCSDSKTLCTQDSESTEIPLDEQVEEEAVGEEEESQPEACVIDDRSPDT

Turning to `Cn1nccc1C(O)c1cc(-c2ccc3c(c2)OCO3)c2nc(N)sc2c1` (stereo not shown) [BA-06, (2-Amino-4-benzo[1,3]dioxol-5-yl-benzothiazol-6-yl)-(2-methyl-2H-pyrazol-3-yl)-methanol], the IC50 in experiment [1] and in experiment [2] was < 5 µM each time.

Take `Fc1c(Cc2ccc(N3CCCC3)nc2)cc2scnc2c1-c1cccc(Cl)c1` [BA-57, 4-(3-chloro-phenyl)-5-fluoro-6-(6-pyrrolidin-1-yl-pyridin-3-ylmethyl)-benzothiazole]: in experiment [1], the IC50 was < 5 µM.

For the compound `CCNC(=O)Nc1ccc(Cc2cc3sc(N)nc3c(-c3cccc(Cl)c3)c2F)cc1` [BA-29, 1-{4-[2-Amino-4-(3-chloro-phenyl)-5-fluoro-benzothiazol-6-ylmethyl]-phenyl}-3-ethyl-urea], the IC50 in experiment [1] and in experiment [2] was < 5 µM in each case.

With `Nc1nc2c(-c3ccc4c(c3)OCO4)cc(Cc3ccc(F)cc3)cc2s1` [BA-04, 4-Benzo[1,3]dioxol-5-yl-6-(4-fluoro-benzyl)-benzothiazol-2-ylamine], the IC50 in experiment [1] and in experiment [2] was < 5 µM throughout.

`CCNC(=O)Nc1ccc(Cc2cc3scnc3c(-c3cccc(C#N)c3)c2F)cn1` [BA-53, 1-{5-[4-(3-cyano-phenyl)-5-fluoro-benzothiazol-6-ylmethyl]-pyridin-2-yl}-3-ethyl-urea]: the IC50 in experiment [1] and in experiment [2] was < 5 µM each time.

Regarding `CN1CCN(Cc2cc3scnc3c(-c3cccc(Cl)c3)c2F)CC1` [BA-50, 4-(3-Chloro-phenyl)-5-fluoro-6-(4-methyl-piperazin-1-ylmethyl)-benzothiazole], the IC50 in experiment [1] was < 5 µM.

`Cc1nc2c(-c3cccc(Cl)c3)cc(Cc3ccc(N)cc3)cc2o1` [BA-22, 4-{[4-(3-chlorophenyl)-2-methyl-1,3-benzoxazol-6-yl]methyl}aniline]: the IC50 in experiment [1] and in experiment [2] was < 5 µM throughout.

Regarding `Nc1nc2c(-c3cccc([N+](=O)[O-])c3)cc(Cn3cccn3)cc2s1` [BA-10, 4-(3-Nitro-phenyl)-6-pyrazol-1-ylmethyl-benzothiazol-2-ylamine], the IC50 in experiment [1] and in experiment [2] was < 5 µM throughout.

Consider `NC(=O)N1CCN(Cc2cc3scnc3c(-c3cccc(Cl)c3)c2F)CC1` [BA-31, 4-[4-(3-Chloro-phenyl)-5-fluoro-benzothiazol-6-ylmethyl]-piperazine-1-carboxylic acid amide], for which the IC50 in experiment [1] and in experiment [2] was < 5 µM throughout.

As for `Clc1cccc(-c2cc(Cc3ccc(N4CCCC4)nc3)cc3scnc23)c1` [BA-59, 4-(3-chloro-phenyl)-6-(6-pyrrolidin-1-yl-pyridin-3-ylmethyl)-benzothiazole], the IC50 was < 5 µM in experiment [1] and 20 to 40 µM in experiment [2].

On to `Nc1ccc(Cc2cc(-c3cccc(Cl)c3)c3ncsc3c2)cc1` [BA-25, 4-[4-(3-Chloro-phenyl)-benzothiazol-6-ylmethyl]-phenylamine], for which the IC50 in experiment [1] and in experiment [2] was < 5 µM throughout.

For `Nc1nc2c(-c3cccc([N+](=O)[O-])c3)cc(Cn3ccnc3)cc2s1` [BA-02, 6-imidazol-1-ylmethyl-4-(3-nitro-phenyl)-benzothiazol-2-ylamine], the IC50 in experiment [1] and in experiment [2] was < 5 µM each time.

On to `Nc1ccc(Cc2cc(-c3cccc(Cl)c3)c3nc(N)sc3c2)cc1` [BA-26, 6-(4-Amino-benzyl)-4-(3-chloro-phenyl)-benzothiazol-2-ylamine], for which the IC50 in experiment [1] and in experiment [2] was < 5 µM each time.

Turning to `NC(=O)Nc1ccc(Cc2cc3sc(N)nc3c(-c3cccc(Cl)c3)c2F)cc1` [BA-21, {4-[2-amino-4-(3-chloro-phenyl)-5-fluoro-benzothiazol-6-ylmethyl]-phenyl}-urea], the IC50 in experiment [1] and in experiment [2] was < 5 µM each time.

With `CC(=O)c1cccc(-c2cc(Cn3cccn3)cc3sc(N)nc23)c1` [BA-12, 1-[3-(2-Amino-6-pyrazol-1-ylmethyl-benzothiazol-4-yl)-phenyl]-ethanone], the IC50 in experiment [1] and in experiment [2] was < 5 µM each time.

For the compound `Nc1nc2c(-c3cccc(Br)c3)cc(Cc3ccc(F)cc3)cc2s1` [BA-13, 4-(3-bromophenyl)-6-(4-fluorobenzyl)-1,3-benzothiazol-2-amine], the IC50 in experiment [1] and in experiment [2] was < 5 µM in each case.

On to `Nc1nc2c(-c3ccc4c(c3)OCO4)cc(Cn3cccn3)cc2s1` [BA-09, 4-Benzo[1,3]dioxol-5-yl-6-pyrazol-1-ylmethyl-benzothiazol-2-ylamine], for which the IC50 in experiment [1] and in experiment [2] was < 5 µM in each case.

Regarding `Nc1ccc(Cc2cc(-c3cccc(Cl)c3)c3nc(N)oc3c2)cc1` [BA-32, 6-(4-aminobenzyl)-4-(3-chlorophenyl)-1,3-benzoxazol-2-amine], the IC50 in experiment [1] and in experiment [2] was < 5 µM each time.

For the compound `CN(C)CC(=O)Nc1ccc(Cc2cc3scnc3c(-c3cccc(Cl)c3)c2F)cn1` [BA-64, N-{5-[4-(3-chloro-phenyl)-5-fluoro-benzothiazol-6-ylmethyl]-pyridin-2-yl}-2-dimethylamino-acetamide], the IC50 in experiment [1] and in experiment [2] was < 5 µM in each case.

`Nc1ccc(Cc2cc3scnc3c(-c3cccc(Cl)c3)c2F)cc1` [BA-23, 4-[4-(3-chloro-phenyl)-5-fluoro-benzothiazol-6-ylmethyl]-phenylamine]: the IC50 in experiment [1] and in experiment [2] was < 5 µM each time.

With `O=C1CNCCN1Cc1cc2scnc2c(-c2cccc(Cl)c2)c1F` [BA-73, 1-[4-(3-Chloro-phenyl)-5-fluoro-benzothiazol-6-ylmethyl]-piperazin-2-one], the IC50 in experiment [1] and in experiment [2] was < 5 µM throughout.

As to `Fc1c(CN2CCNCC2)cc2scnc2c1-c1cccc(Cl)c1` [BA-48, 4-(3-Chloro-phenyl)-5-fluoro-6-piperazin-1-ylmethyl-benzothiazole], the results for the 50% inhibitory concentration (IC50) in experiment [1] and in experiment [2] were < 5 µM and 5 to 20 µM, respectively.

For `Cc1nc2c(-c3cccc(Cl)c3)cc(Cc3ccc(N)nc3)cc2s1` [BA-66, 5-[4-(3-chloro-phenyl)-2-methyl-benzothiazol-6-ylmethyl]-pyridin-2-ylamine], the IC50 in experiment [1] is < 5 µM.

As to `N#Cc1ccc(Cc2cc3scnc3c(-c3cccc(Cl)c3)c2F)cn1` [BA-60, 5-[4-(3-chloro-phenyl)-5-fluoro-benzothiazol-6-ylmethyl]-pyridine-2-carbonitrile], the IC50 in experiment [1] and in experiment [2] was < 5 µM each time.

With `CCNC(=O)N1CCN(Cc2cc3scnc3c(-c3cccc(Cl)c3)c2F)CC1` [BA-52, 4-[4-(3-chloro-phenyl)-5-fluoro-benzothiazol-6-ylmethyl]-piperazine-1-carboxylic acid ethylamide], the values for the IC50 in experiment [1] and in experiment [2] were < 5 µM and 20 to 40 µM, respectively.

For the compound `Nc1ccc(Cc2cc3scnc3c(-c3cccc(Cl)c3)c2F)cn1` [BA-63, 5-[4-(3-chloro-phenyl)-5-fluoro-benzothiazol-6-ylmethyl]-pyridin-2-ylamine], the IC50 in experiment [1] and in experiment [2] was < 5 µM each time.

As to `Fc1c(Cc2ccc(N3CCC3)nc2)cc2scnc2c1-c1cccc(Cl)c1` [BA-61, 6-(6-azetidin-1-yl-pyridin-3-ylmethyl)-4-(3-chloro-phenyl)-5-fluoro-benzothiazole], the IC50 in experiment [1] and in experiment [2] was < 5 µM in each case.

In the case of `CCNC(=O)Nc1ccc(Cc2cc3scnc3c(-c3cccc(Cl)c3)c2F)cc1` [BA-30, 1-{4-[4-(3-chloro-phenyl)-5-fluoro-benzothiazol-6-ylmethyl]-phenyl}-3-ethyl-urea], the IC50 in experiment [1] and in experiment [2] was < 5 µM each time.

With `CCOC(=O)NC1CCN(Cc2cc3scnc3c(-c3cccc(Cl)c3)c2F)CC1` [BA-45, {1-[4-(3-Chloro-phenyl)-5-fluoro-benzothiazol-6-ylmethyl]-piperidin-4-yl}-carbamic acid ethyl ester], the IC50 in experiment [1] is < 5 µM; in experiment [2] it was 5 to 20 µM.

`CCNC(=O)N1CCN(Cc2cc3scnc3c(-c3cccc(Cl)c3)c2F)C(=O)C1` [BA-72, 4-[4-(3-Chloro-phenyl)-5-fluoro-benzothiazol-6-ylmethyl]-3-oxo-piperazine-1-carboxylic acid ethylamide]: the IC50 in experiment [1] and in experiment [2] was < 5 µM each time.

For the compound `CCNC(=O)Nc1ccc(Cc2cc3scnc3c(-c3cccc(Cl)c3)c2F)cn1` [BA-33, 1-[5-[4-(3-chloro-phenyl)-5-fluoro-benzothiazol-6-ylmethyl]-pyridin-2-yl]-3-ethyl-urea], the IC50 in experiment [1] and in experiment [2] was < 5 µM in each case.

Turning to `CN(C)c1ccc(Cc2cc3scnc3c(-c3cccc(Cl)c3)c2F)cn1` [BA-55, {5-[4-(3-chloro-phenyl)-5-fluoro-benzothiazol-6-ylmethyl]-pyridin-2-yl}-dimethyl-amine], the IC50 in experiment [1] and in experiment [2] was < 5 µM throughout.
